Data as given in patent publication US20220264876A1, “COMPOSITIONS AND METHODS FOR ENHANCING PLANT GROWTH” (BOYCE THOMPSON INSTITUTE FOR PLANT RESEARCH, INC., priority 2019, published 2022).

Legend:
Format in all cases: in vivo
[1] = test system: wheat seeds; test: Wheat seed pretreatment with ascr #18: germination/emergence and growth in soil; conditions: wheat seeds pretreated 24 hours with 10, 100, 1000 nM vs mock; 10 days after planting (FIG. 9B)
Protocol: FIGS. 9A-9B show the effect of ascr #18 on wheat seed germination/emergence and growth. Wheat seeds were pretreated 24 hours without (mock) or with different concentrations (10, 100 and 1000 nM) of ascr #18 before planting in soil. Seed germination/emergence from soil was measured after 2, 3, 4, 5, 6, 7, 8, 9 and 10 days after planting (FIG. 9A). The height of the second node of the plants was measured […] after planting (FIG. 9B). Data are averages±s.d. (n≥12). *P≤0.05; two-tailed t-test. The effect of ascr #18 on wheat seed germination/emergence and growth was also studied. Wheat seeds were pretreated 24 hours without (mock) or with different concentrations (10, 100 and 1000 nM) of ascr #18 before planting in soil. Seed germination/emergence from soil was measured after 2, 3, 4, 5, 6, 7, 8, 9 and 10 days after planting (FIG. 9A). The height of the second node of the plants was also measured 10 days after planting.

[2] = test system: rice seeds; test: Rice seed pretreatment with ascr #18: germination/emergence and growth in soil
Protocol: FIGS. 1A-1D show the effect of ascr #18 on rice seed germination/emergence and growth. Rice seeds were pretreated 24 hours without (mock) or with different concentrations (10, 100 and 1000 nM) of ascr #18 before planting in soil. Seed germination/emergence from soil was measured after 7, 8, 9, 10 and 11 days after planting (FIG. 1A). The length of the plants was measured 15 days after planting (FIG. 1B) and 18 days after planting (FIG. 1C). Pictures were taken 15 days after planting (FIG. 1D). Data are averages±s.d. (n≥12). ***P≤0.0005; ****P≤0.00005; two-tailed t-test.
FIGS. 2A-2C show the effect of ascr #18 on rice seed germination/emergence and growth. Rice seeds were pretreated 24 hours without (mock) or with different concentrations (10, 100 and 1000 nM) of ascr #18 before planting in soil. Seed germination/emergence from soil was measured after 6, 7, 8, 9 and 10 days after planting (FIG. 2A). The length of the plants was measured 10, 12, 14, 15 and 18 days after planting (FIG. 2B). The fresh biomass of the plants was measured 18 days after planting (FIG. 2C). Data are averages±s.d. (n≥14). *P≤0.05; **P≤0.005; ***P≤0.0005; ****P≤0.00005; two-tailed t-test.
The effect of ascr #18 on rice seed germination/emergence and growth was tested. Briefly, rice seeds were pretreated 24 hours without (mock) or with different concentrations (10, 100 and 1000 nM) of ascr #18 before planting in soil. Seed germination/emergence from soil was measured after 7, 8, 9, 10 and 11 days after planting. […] The length of plants was also measured 15 days and 18 days after planting and pictures were taken at 15 days after planting.
Further studies of the effect of ascr #18 on rice seed germination/emergence and growth were performed. Rice seeds were pretreated 24 hours without (mock) or with different concentrations (10, 100 and 1000 nM) of ascr #18 before planting in soil. Seed germination/emergence from soil was measured after 6, 7, 8, 9 and 10 days after planting. […] The length of plants was also measured at 10, 12, 14, 15 and 18 days after planting. […] The fresh biomass of plants was also measured 18 days after planting.

[3] = test system: Arabidopsis seeds; test: Arabidopsis seed pretreatment with ascr #18: germination, growth and flowering
Protocol: Arabidopsis seeds were pretreated 24 hours without (mock) or with 1 μM ascr #18 before planting in soil. FIG. 5A provides a graph of the number of plants at different stages of germination counted 3 days after planting. Stages of germination; 0=no germination; 1=about to germinate; 2=germinated and two-leaf stage; 3=germinated and have expanded leaves (n=60). FIG. 5B provides graphs of the surface area of germinated plants measured by taking pictures and counting pixels using Fiji software and then normalizing by the total area for each plant (n=15 pots with each pot containing 4 plants). FIG. 5C provides a graph of the percent of plants flowering at day 25 after planting in soil. FIG. 5D provides a graph of the fresh weight of above-ground (excluding root) part of the plants measured at day 25 after planting in soil. *P=0.03; **P≤0.01; ***P≤0.001; ****P≤0.0001; two-tailed t-test. The effects of ascr #18 on Arabidopsis were also studied. Arabidopsis seeds were pretreated 24 hours without (mock) or with 1 μM ascr #18 for ascr #18 before planting in soil. The number of plants at different stages of germination were counted 3 days after planting. […] Additionally, the surface area of germinated plants was measured by taking pictures and counting pixels using Fiji software. The data was then normalized by the total area for each plant. […] The percentage of plants flowering at day 25 after planting in soil was also determined. […] The fresh weight of above-ground (excluding root) part of the plants was also measured 25 days after planting.

[4] = test system: potato plants; test: Spray treatment of four-week old potato plants with ascr #18: growth and tuber yield
Protocol: FIGS. 6A-6B show the effects of ascr #18 on potato plants. Four-week old potato plants were pretreated without (mock) or with ascr #18 (10 nM). Potato tubers were harvested from mock and pre-treated plants. FIG. 6A provides images of tubers from one representative plant that was mock treated and one representative plant that was treated with ascr #18. FIG. 6B provides a graph of the biomass of the above-ground (excluding root) part of the potato plants. FIGS. 7A-7E show the effect of ascr #18 on potato plant growth and yield. Four-week old potato plants were sprayed once with buffer only (mock) or 10 nM ascr #18 before harvesting two weeks later. […] Potato root system (7C) and tubers (7D) harvest from treated and mock plants are presented. Each pile of tubers was from one plant. FIG. 7E presents the tuber biomass of the mock and treated plants at harvest. The effects of ascr #18 on potato were also studied. Four week old potato plants were pretreated (sprat treatment) without (mock) or with ascr #18 (10 nM). Potato tubers were harvested from mock and pre-treated plants. Each pile of tubers in FIG. 6A were from one plant. […] The above-ground (excluding root) part of the potato plants was also measured.

[5] = test system: corn seeds; test: Corn seed pretreatment with ascr #18: germination/emergence and growth in soil
Protocol: FIGS. 8A-8B show the effect of ascr #18 on corn seed germination/emergence and growth. Corn seeds were pretreated 24 hours without (mock) or with different concentrations (10, 100 and 1000 nM) of ascr #18 before planting in soil. Seed germination/emergence from soil was measured after 4, 5, 6, 7, 8, 9, 10 and 11 days after planting (FIG. 8A). The height of the second node of the plants was measured 15 days after planting (FIG. 8B). Data are averages±s.d. (n≥12). *P≤0.05; two-tailed t-test. The effect of ascr #18 on corn seed germination/emergence and growth was also studied. Corn seeds were pretreated 24 hours without (mock) or with different concentrations (10, 100 and 1000 nM) of ascr #18 before planting in soil. Seed germination/emergence from soil was measured after 4, 5, 6, 7, 8, 9, 10 and 11 days after planting. […] The height of the second node of the plants was also measured 15 days after planting.

[6] = test system: tomato seeds; test: Tomato seed pretreatment with ascr #18: germination/emergence and growth in soil
Protocol: Tomato seeds were pretreated 24 hours without (mock) or with different concentrations (1, 10, 100, 1000 and 10000 nM) of ascr #18 before planting on soil. The length of the plants was measured 12 days after planting. **P≤0.002; ****P≤0.00005; two-tailed t-test. FIGS. 4A-4F show the effect of ascr #18 on tomato seed germination/emergence and growth. Tomato seeds were pretreated 24 hours without (mock) or with different concentrations (10, 100, and 1000 nM) of ascr #18 before planting in soil. Seed germination/emergence from soil was measured after 4, 5, 6 and 7 days after planting (FIG. 4A). The length of plants was measured 12 and 14 days after planting (FIG. 4B). Pictures were taken 14 days after planting (FIG. 4C). **P≤0.002; ****P≤0.00005; two-tailed t-test. FIGS. 4D and 4E provide graphs of the fresh weight of above-ground (excluding root) part of the plants measured at day 21 after planting in soil for tomato seeds pretreated without (mock) or with different concentrations (0.1 and 10 μM) of ascr #18 for 24 hours (FIG. 4D) or 72 hours (FIG. 4E) before planting in soil. The length of the roots of the plants was also measured 21 days after planting (FIG. 4F). The effect of ascr #18 on was also determined on tomato plant growth. Tomato seeds were pretreated 24 hours without (mock) or with different concentrations (1, 10, 100, 1000 and 10000 nM) of ascr #18 before planting on soil. The length of the plants was measured 12 days after planting. […] Further studies on the effect of ascr #18 on tomato seed germination/emergence and growth. Tomato seeds were pretreated 24 hours without (mock) or with different concentrations (10, 100, and 1000 nM) of ascr #18 before planting in soil. Seed germination/emergence from soil was measured after 4, 5, 6 and 7 days after planting. […] The length of the plants was also measured 12 and 14 days after planting and pictures were taken 14 days after planting. […] In further experiments, tomato seeds were pretreated 24 or 72 hours without (mock) or with different concentrations (0.1 and 10 μM) of ascr #18 before planting in soil. More specifically, the tomato seeds were submerged in aqueous solutions of ascaroside for 24 hours or 72 hours directly before planting. Alternatively, seeds, (e.g., tomato seeds) can be coated with a solution of different concentrations of ascaroside containing polymeric binders commonly used for seed coating. Following treatment, the seeds can be dried and stored (e.g., for 2 weeks) before planting. The fresh weight of above-ground (excluding root) part of the plants was measured 21 days after planting. […] The length of the roots of the plants was also measured 21 days after planting.

## CC1O[C@@H](O[C@@H](C)CCCCCCCCC(=O)O)C(O)C[C@H]1O (stereo in doubt) [ascr #18, (10R)-(3′R,5′R-dihydroxy-6′S-methyl-(2H)-tetrahydropyran-2-yloxy)-undecanoic Acid]
[1]
  Height of the second node of the plants: taller
[2]; rice seeds pretreated 24 hours with 10, 100, 1000 nM vs mock, 7-11 days after planting (FIG. 1A)
  Seed germination/emergence from soil: faster germination/emergence rate
[2]; rice, further study, 10, 100, 1000 nM for 24 hours vs mock, 6-10 days after planting (FIG. 2A)
  Seed germination/emergence from soil: faster germination/emergence rate
[2]; rice, further study, 10, 100, 1000 nM, 10, 12, 14, 15 and 18 days after planting (FIG. 2B)
  Length of plants: faster growth
[2]; rice, further study, 10, 100, 1000 nM, 18 days after planting (FIG. 2C)
  Fresh biomass of plants: greater biomass
[2]; rice, seed treatment 100 nM or 1000 nM vs untreated or 10 nM, 15 and 18 days after planting (FIGS. 1B-1D)
  Length of plants: taller
[3]; Arabidopsis seeds pretreated 24 hours with 1 μM vs mock, 3 days after planting (FIG. 5A)
  Number of plants at different stages of germination: faster germination/emergence rate
[3]; Arabidopsis, 1 μM vs mock, 25 days after planting (FIG. 5D)
  Fresh weight of above-ground (excluding root) part of the plants: greater weight
[3]; Arabidopsis, 1 μM vs mock, day 25 after planting in soil (FIG. 5C)
  Percentage of plants flowering: greater plant flowering
[3]; Arabidopsis, 1 μM vs mock, pixel counting with Fiji software, normalized (FIG. 5B)
  Surface area of germinated plants: greater plant surface area
[4]; four-week old potato plants sprayed once with 10 nM vs mock, harvest two weeks later (FIG. 6B, FIGS. 7A-7E)
  Biomass of the potato plants (above-ground part, tubers): greater biomass
[4]; four-week old potato plants sprayed with 10 nM vs mock (FIG. 6A)
  Potato tubers harvested: significantly more potato tubers
[5]; corn seeds pretreated 24 hours with 10, 100, 1000 nM vs mock, 4-11 days after planting (FIG. 8A)
  Seed germination/emergence from soil: faster germination/emergence rate
[5]; corn, 10, 100, 1000 nM vs mock, 15 days after planting (FIG. 8B)
  Height of the second node of the plants: taller
[6]; tomato seeds pretreated 24 or 72 hours with 0.1 and 10 μM vs mock, 21 days after planting (FIGS. 4D-4E), particularly with longer pretreatment
  Fresh weight of above-ground (excluding root) part of the plants: greater weight
[6]; tomato seeds pretreated 24 hours with 10, 100, 1000 nM vs mock, 4-7 days after planting (FIG. 4A)
  Seed germination/emergence from soil: faster germination/emergence rate
[6]; tomato, 0.1 and 10 μM vs mock, 21 days after planting (FIG. 4F)
  Length of the roots of the plants: longer roots
[6]; tomato, 10, 100, 1000 nM for 24 hours, 12 and 14 days after planting (FIGS. 4B-4C)
  Length of the plants: taller
[6]; tomato, seed treatment 100 nM or 1000 nM vs untreated or 10 nM, 12 days after planting (FIG. 3)
  Length of the plants: taller
